From patent publication US8703805B2 (Exelixis Patent Company LLC, priority 2005, dated 2014) come the findings set out here.

Structures are written as SMILES.

The test system of this assay is LXRα and/or LXRβ. As to the kind of experiment: LXR/LXRE co-transfection assay (luciferase reporter, CV-1 cells). To be noted: IC50 or EC50 for LXR (LXRα and/or LXRβ, not distinguished), tested as described in Example 109, CV-1 cells. The format is cell-based, human. The text has this: To measure the ability of compounds to activate or inhibit the transcriptional activity of LXR in a cell based assay, the co-transfection assay was used. It has been shown that LXR functions as a heterodimer with RXR. For the co-transfection assay; expression plasmids for LXR and RXR are introduced via transient transfection into mammalian cells along with a luciferase reporter plasmid that contains one copy of a DNA sequence that is bound by LXR-RXR heterodimers (LXRE; Willy, P. ad. 1995). Treatment of transfected cells with an LXR agonist increases the transcriptional activity of LXR, which is measured by an increase in luciferase activity.
CV-1 African Green Monkey Kidney Cells Co-transfection expression plasmids, comprising full-length LXRα (pCMX-h LXRα, LXRβ (pCMX-hLXRβ), or RXRα (pCMX-RXR), reporter plasmid (LXREx1-Tk-Luciferase), and control (pCMX-Galactosidase expression vector) (Willey et al. Genes & Development 91033-1045 (1995)). Transfection reagent such as FuGENE6 (Roche). 1× Cell lysis buffer (1% Triton X 100 (IT Baker X200-07), 10% Glycerol (JT Baker M778-07), 5 mM Ditriotreitol (Quantum Bioprobe DTT03; add fresh before lysing), 1 mM EGTA (Ethylene Glycol-bis(B-Amino ethyl ether)-N,N,N′,N′-Tetracetic Acid) (Sigma E-4378), 25 mM Tricine (ICN 807420) pH 7.8) 1× Luciferase assay buffer (pH at 7.8) (0.73 mM ATP, 22.3 mM Tricine, 0.11 mM EDTA, 33.3 mM DTT) 1× Luciferrin/CoA (11 mM Luciferin, 3.05 mM Coenzyme A, 10 mM HEPES) Preparation of Screening Reagents
CV-1 cells were prepared 24 hours prior to the experiment by plating them into T-175 flasks or 500 cm^2 dishes in order to achieve 70-80% confluency on the day of the transfection. The number of cells to be transfected was determined by the number of plates to be screened. each 384 well plate requires 1.92×10^6 cells or 5000 cells per well. DNA Transfection Reagent was prepared by mixing the required plasmid DNAs with a cationic lipid transfection reagent FuGENE6 (Roche) by following the instructions provided with the reagents. Optimal DNA amounts were determined empirically per cell line and size of vessel to be transfected. 10-12 mL of media was added to the DNA Transfection Reagent and this mixture was added to the cells after aspirating media from the T175 cm^2 flask. Cells were then incubated at least 5 hours at 37° C. to prepare screening cells.
Luciferase assay reagent was prepared by combining before use (per 10 mL): […], 0.54 mL of 1× Luciferrin/CoA; 0.54 mL of 0.2 M Magnesium sulfate
Assay plates were prepared by dispensing 5 μL of compound per well of a 384 well plate to achieve final compound concentration of 10 μM and no more than 1% DMSO. Media was removed from the screening cells, the cells trypsinized, harvested cells by centrifugation, counted, and plated at a density of approximately 5000 cells per well in the 384 well assay plate prepared above in a volume of about 45 μL. Assay plates containing both compounds and screening cells (50 μL in total volume) were incubated for 20 hours at 37° C.
After incubation with compounds, media was removed from the cells and lysis buffer (30 μL/well) added. After 30 minutes at ambient temperature, luciferase assay buffer (30 μL/well) was added and the assay plates read on a luminometer (PE Biosystems Northstar reader with on-board injectors, or equivalent). Plates were read immediately after addition of luciferase assay buffer.
The LXR/LXRE co-transfection assay can be used to establish the EC50/IC50 values for potency and percent activity or inhibition for efficacy. Efficacy defines the activity of a compound relative to a high control ((N-(3-((4-fluorophenyl)-(naphthalene-2-sulfonyl)amino)propyl)-2,2-dimethylpropionamide)) or a low control (DMSO/vehicle). The dose response curves are generated from an 8 point curve with concentrations differing by ½ LOG units. each point represents the average of 4 wells of data from a 384 well plate. […]
In the case of `CS(=O)(=O)c1cccc(-c2ccc(-c3cc(CN4CCCC4)nn3-c3ccccc3Cl)s2)c1` [Example 456, 1-(2-chlorophenyl)-5-{5-[3-(methylsulfonyl)phenyl]-2-thienyl}-3-(pyrrolidin-1-ylmethyl)-1H-pyrazole], the EC50 fell in the range of 1000 to 10000 nM.

Compound `CCN(Cc1ccncc1)Cc1cc(-c2ccc(-c3cccc(S(C)(=O)=O)c3)s2)n(-c2ccccc2Cl)n1` [Example 485, N-{[1-(2-chlorophenyl)-5-{5-[3-(methylsulfonyl)phenyl]-2-thienyl}-1H-pyrazol-3-yl]methyl}-N-(pyridin-4-ylmethyl)ethanamine] had an EC50 of less than 1000 nM.

For the compound `CN1CCN(C(=O)c2cc(-c3ccc(-c4cccc(S(C)(=O)=O)c4)s3)n(-c3ccccc3Cl)n2)CC1` [Example 508, 1-{[1-(2-chlorophenyl)-5-{5-[3-(methylsulfonyl)phenyl]-2-thienyl}-1H-pyrazole-3-yl]carbonyl}-4-methylpiperazine], the half-maximal effective concentration (EC50) was in the range of 1000 to 10000 nM.

Regarding `CN(Cc1ccsc1)Cc1cc(-c2ccc(-c3cccc(S(C)(=O)=O)c3)s2)n(-c2ccccc2Cl)n1` [Example 544, 1-[1-(2-chlorophenyl)-5-{5-[3-(methylsulfonyl)phenyl]-2-thienyl}-1H-pyrazol-3-yl]-N-methyl-N-(3-thienylmethyl)methanamine], the concentration giving a half-maximal response (EC50) lay within 1000 to 10000 nM.

With `CS(=O)(=O)c1cccc(-c2ccc(-c3cc(CNc4cc[nH]c(=S)n4)nn3-c3ccccc3Cl)s2)c1` [Example 545, 4-({[1-(2-chlorophenyl)-5-{5-[3-(methylsulfonyl)phenyl]-2-thienyl}-1H-pyrazol-3-yl]methyl}amino)pyrimidine-2(1H)-thione], the EC50 lay within 1000 to 10000 nM.

`CN(Cc1ccncc1)Cc1cc(-c2ccc(-c3cccc(S(C)(=O)=O)c3)s2)n(-c2ccccc2Cl)n1` [Example 547, 1-[1-(2-chlorophenyl)-5-{5-[3-(methylsulfonyl)phenyl]-2-thienyl}-1H-pyrazol-3-yl]-N-methyl-N-(pyridin-4-ylmethyl)methanamine] gave an EC50 of less than 1000 nM.

Compound `CN(CC#N)Cc1cc(-c2ccc(-c3cccc(S(C)(=O)=O)c3)s2)n(-c2ccccc2Cl)n1` [Example 558, [{[1-(2-chlorophenyl)-5-{5-[3-(methylsulfonyl)phenyl]-2-thienyl}-1H-pyrazol-3-yl]methyl}(methyl)amino]acetonitrile] displayed an EC50 of 1000 to 10000 nM.

`Cc1n[nH]c(C)c1CN(C)Cc1cc(-c2ccc(-c3cccc(S(C)(=O)=O)c3)s2)n(-c2ccccc2Cl)n1` [Example 568, 1-[1-(2-chlorophenyl)-5-{5-[3-(methylsulfonyl)phenyl]-2-thienyl}-1H-pyrazol-3-yl]-N-[(3,5-dimethyl-1H-pyrazol-4-yl)methyl}-N-methylmethanamine] yielded an EC50 of 1000 to 10000 nM.

For the compound `CCN(CC)CCN(CC)C(=O)c1cc(-c2ccc(-c3cccc(S(C)(=O)=O)c3)s2)n(-c2ccccc2Cl)n1` [Example 587, 1-(2-chlorophenyl)-N-[2-(diethylamino)ethyl]-N-ethyl-5-{5-[3-(methylsulfonyl)phenyl]-2-thienyl}-1H-pyrazole-3-carboxamide], the 50% effective concentration (EC50) is less than 1000 nM.

In turn, `CN(C)CCCN(C)C(=O)c1cc(-c2ccc(-c3cccc(S(C)(=O)=O)c3)s2)n(-c2ccccc2Cl)n1` [Example 588, 1-(2-chlorophenyl)-N-[3-(dimethylamino)propyl]-N-methyl-5-{5-[3-(methylsulfonyl)phenyl]-2-thienyl}-1H-pyrazole-3-carboxamide] yielded an EC50 of less than 1000 nM.

Compound `COC(=O)CN(C)C(=O)c1cc(-c2ccc(-c3cccc(S(C)(=O)=O)c3)s2)n(-c2ccccc2Cl)n1` [Example 589, methyl N-{[1-(2-chlorophenyl)-5-{5-[3-(methylsulfonyl)phenyl]-2-thienyl}-1H-pyrazol-3-yl]carbonyl}-N-methylglycinate] showed an EC50 of less than 1000 nM.

In the case of `CS(=O)(=O)c1cccc(-c2ccc(-c3cc(C(=O)NCCN4CCOCC4)nn3-c3ccccc3Cl)s2)c1` [Example 590, 1-(2-chlorophenyl)-5-{5-[3-(methylsulfonyl)phenyl]-2-thienyl}-N-(2-morpholin-4-ylmethyl)-1H-pyrazole-3-carboxamide], the EC50 was in the range of 1000 to 10000 nM.

`CN(C)C1CCN(C(=O)c2cc(-c3ccc(-c4cccc(S(C)(=O)=O)c4)s3)n(-c3ccccc3Cl)n2)CC1` [Example 591, 1-{[1-(2-chlorophenyl)-5-{5-[3-(methylsulfonyl)phenyl]-2-thienyl}-1H-pyrazol-3-yl]carbonyl}-N,N-dimethylpiperidin-4-amine] came in with a 50% effective concentration (EC50) of 1000 to 10000 nM.

The compound `CS(=O)(=O)c1cccc(-c2ccc(-c3cc(C(=O)N4CCC(C(=O)O)CC4)nn3-c3ccccc3Cl)s2)c1` [Example 592, 1-(1-(2-chlorophenyl)-5-(5-(3-(methylsulfonyl)phenyl)thiophen-2-yl)-1H-pyrazole-3-carbonyl)piperidine-4-carboxylic acid] displayed an EC50 of 1000 to 10000 nM.

The compound `CN1CCC(N(C)C(=O)c2cc(-c3ccc(-c4cccc(S(C)(=O)=O)c4)s3)n(-c3ccccc3Cl)n2)CC1` [Example 716, 1-(2-chlorophenyl)-N-methyl-N-(1-methylpiperidin-4-yl)-5-{5-[3-(methylsulfonyl)phenyl]-2-thienyl}-1H-pyrazole-3-carboxamide] had a concentration for a half-maximal effect (EC50) of less than 1000 nM.

For `CN(CC(N)=O)C(=O)c1cc(-c2ccc(-c3cccc(S(C)(=O)=O)c3)s2)n(-c2ccccc2Cl)n1` [Example 724, N-(2-amino-2-oxoethyl)-1-(2-chlorophenyl)-N-methyl-5-{5-[3-(methylsulfonyl)phenyl]-2-thienyl}-1H-pyrazole-3-carboxamide], the EC50 is 1000 to 10000 nM.

For the compound `CS(=O)(=O)c1cccc(-c2ccc(-c3cc(C(=O)NCCCN4CCCC4)nn3-c3ccccc3Cl)s2)c1` [Example 733, 1-(2-chlorophenyl)-5-{5-[3-(methylsulfonyl)phenyl]-2-thienyl}-N-(3-pyrrolidin-1-ylpropyl)-1H-pyrazol-3-carboxamide], the EC50 is less than 1000 nM.

The compound `CCN1CCC(CNC(=O)c2cc(-c3ccc(-c4cccc(S(C)(=O)=O)c4)s3)n(-c3ccccc3Cl)n2)C1` (stereo not shown) [Example 739, 1-(2-chlorophenyl)-N-[(1-ethylpyrrolidin-3-yl)methyl]-5-{5-[3-(methylsulfonyl)phenyl}-2-thienyl}-1H-pyrazole-3-carboxamide] yielded a concentration giving a half-maximal response (EC50) of 1000 to 10000 nM.

`CC(=O)c1cccc(-c2ccc(-c3cc(C(C)(C)O)nn3-c3ccccc3Cl)s2)c1` [Example 755, 1-(3-{5-[1-(2-chlorophenyl)-3-(1-hydroxy-1-methylethyl)-1H-pyrazol-5-yl]-2-thienyl}phenyl)ethanone] displayed a concentration for a half-maximal effect (EC50) of 1000 to 10000 nM.

Consider `CC(C)(O)c1cc(-c2ccc(-c3ccc(S(C)(=O)=O)cc3)s2)n(-c2ccccc2Cl)n1` [Example 804, 2-[1-(2-chlorophenyl)-5-{5-[4-(methylsulfonyl)phenyl]-2-thienyl}-1H-pyrazol-3-yl]propan-2-ol], for which the EC50 lay within 1000 to 10000 nM.

The compound `COc1cccc(-c2ccc(-c3cc(C(C)(C)O)nn3-c3ccccc3Cl)s2)c1OC` [Example 859, 2-[5-{5-[2,3-bis(methyloxy)phenyl]-2-thienyl}-1-(2-chlorophenyl)-1H-pyrazol-3-yl]propan-2-ol] displayed a concentration for a half-maximal effect (EC50) of 1000 to 10000 nM.

`O=C(NCCN1CCOCC1)c1ccc(-c2cc(C(F)(F)F)nn2-c2ccccc2Cl)cc1` [Example 970, 4-[1-(2-chlorophenyl)-3-(trifluoromethyl)-1H-pyrazol-5-yl]-N-(2-morpholin-4-ylethyl)benzamide] gave a concentration for a half-maximal effect (EC50) of 1000 to 10000 nM.

By EC50 is commonly meant the midpoint of the concentration-response curve. Low values mean greater potency, high ones weaker potency.
